The text below walks through data of PMC6197077 (Frontiers in Immunology, 2018).

Values joined by “and” are separate entries in the source; they are usually repeats but may differ in a detail not shown here. Equal entries are not always repeated. “Also recorded” adds a separate entry of the source. Where two headings read alike, the source gives them in different places.

Data set [1] has as its system T cells interacting with dendritic cells. The settings on record: peptide pulsed DCs, lymph node; versus 41C; ref Henrickson et al. [36]; cited from earlier work. An excerpt: (§1) The question is to what extent loading of MHC affects the T cell response and their biology.
The test system of data set [2] is P14 CD8+ T cells. It is filed as cell-based, mice. The settings on record: for %Nur77+: representative of 3 experiments, n = 3-4 mice; for signal strength as measured by Nur77 upregulation: P14 CD8 T cells re-stimulated ex vivo; for ligand potency: at equivalent peptide doses, not factoring in peptide loading.
Data set [3] concerns the target P14 TCR. The settings on record: cited from earlier work; for Kd: SPR.
The subject of data set [4] is polyclonal CD8+ T cells. It is filed as cell-based, mice.
The subject of data set [5] is TCR of naïve P14 CD8+ T cells (TCR:pMHC, H2D^b). It is filed as binding, mice. The settings on record: for mean population 2D affinity (AcKa): naïve CD8+ P14 splenocytes, 50 contact cycles per cell, 3 individual experiments; for 2D affinity, result in words: naïve P14 CD8+ T cells.
The test system of data set [6] is P14 CD8+ T cells. It is filed as cell-based, mice.
For data set [7], the system named is TCR and CD8 of naïve P14 CD8+ T cells (TCR:pMHC:CD8, D^b). It is filed as binding, mice. The settings on record: for normalized adhesion bonds, mean bond number (-ln(1-Pa(s))/mpMHC): P14 CD8+ T cells, wild type (CD8-intact) pMHC monomers, 3 individual experiments; for total bond number hierarchy: single P14 T cell probed against all three pMHC (Figure 2B).
In data set [8] the test system is P14 TCR (TCR:pMHC, D^b D227K). It is filed as binding, mice. The settings on record: for peak bond lifetime under force, CD8-null: BFP force-clamp, absence of CD8 (CD8-null pMHC), peak of force curve, >1,000 bond lifetimes per curve; for bond lifetime by BFP for the TCR alone: restated range in Discussion; for bond lifetime at ~10 pN, CD8-null: ~10 pN of force, CD8-null (Figures 3D,E).

Data set [9] deals with P14 CD8+ T cells. It is filed as cell-based, mice. The settings on record: for IRF4 MFI at low peptide doses: P14 CD8+ T cells (Figure 4H).
For data set [10], the system named is polyclonal CD8+ T cells. It is filed as cell-based, mice. The settings on record: for Nur77 MFI: polyclonal CD8 T cells, 1 uM (Figure 6F).
Data set [11] concerns P14 TCR with CD8 coreceptor (TCR:pMHC:CD8). It is filed as binding, mice. The settings on record: for peak bond lifetime under force, CD8-intact: BFP force-clamp, CD8-intact pMHC, peak of force curve, >1,000 bond lifetimes per curve; for bond lifetime at ~10 pN, CD8-intact: ~10 pN of force, CD8-intact (Figures 3F,G).
For data set [12] the following is noted: terminal cysteine; ref [27], [34]-[36]; cited from earlier work.
Data set [13] relates to MHC class I (D^b). The settings on record: terminal cysteine; ref [27], [34]-[36]; cited from earlier work.
For data set [14], the system named is pMHC (T-2D^b cell line). The settings on record: competition on T-2D^b cell line; versus 9-mer 41C; ref [8] Gairin et al.; cited from earlier work.
Text: as §1

The mark [15] stands for this setting: P14 CD8+ T cells, D8 p.i., range of peptide doses.
Where [16] appears, read: Boulter et al., ref [52], read-out: 3D affinity (as restated in Discussion).

On to KAVYNFATM [41M], for which the “transition to phase two T cell:DC contacts” value in [1] was “transitioned more quickly to phase two”. Moreover, in [2] (P14 CD8+ T cells re-stimulated ex vivo), the “peptide dose at which Nur77 MFI peaks” value turned out to be 0.31 µM. Besides, in data set [2] (setting [15]), the “Nur77 MFI” value was “higher MFI (peaking at 0.31 uM) than 41C and dramatically more so than 41CGI”; the “%Nur77+” value was “higher percentage of CD8+ T cells re-stimulated with 41M expressed Nur77”. Further, in data set [2], the “signal strength as measured by Nur77 upregulation” value is on record as “stronger signal than 41C; also recorded: significantly stronger signals than 41CGI stimulated cells” and the ligand potency is recorded as 41M > 41C > 41CGI. In addition, in data set [3] (ref [50], read-out: KD (3D affinity, SPR)), the Kd was 17 µM. Besides, the Kd in data set [3] (ref [51], read-out: KD (3D affinity, SPR)) was 9.1 µM. Further, in [3] (ref [52], read-out: KD (3D affinity, SPR)), the Kd is 2.3 µM. Further, the “bond lifetime by SPR” value in data set [3] (ref [51]) is ~ 0.5 s. Besides, the IRF4 expression entry in data set [4] was “only a slight difference between 41M and 41C”. Besides, in [5], the “mean population 2D affinity (AcKa)” value was 1.04E-03 μm^4 and the “2D affinity, result in words” value is recorded as “highest 2D affinity”. For the same sequence, in data set [6], the “double producers of IFNγ and TNF” value is “significantly higher frequency”; the sensitivity to antigen entry is “same sensitivity to antigen”; the “triple producers of IFNγ, TNF and IL-2” value is reported as “significantly higher frequency”. Also, the IFNγ production entry in data set [6] (P14 cells, range of peptide doses, 6 h ex vivo (Figures 5A,B)) is recorded as “produced the most IFNγ”. Moreover, the agonist classification entry in data set [6] (by 2D affinity measures and functionality) is “super agonist peptide variant”. For the same sequence, in data set [7], the “normalized adhesion bonds, mean bond number (-ln(1-Pa(s))/mpMHC)” value was found to be 6.40E-01 μm^2 and the “total bond number hierarchy” value came out at 41M> 41C> 41CGI. For the same sequence, in data set [8], the “peak bond lifetime under force, CD8-null” value is reported as ~ 0.8 s; the “bond lifetime by BFP for the TCR alone” value was 0.8 to 0.9 s; the “bond lifetime at ~10 pN, CD8-null” value was “no significant difference in bond lifetime between 41M and 41C”. In addition, in [9], the “IRF4 MFI at low peptide doses” value was “difference in IRF4 MFI”. Also, in data set [10], the “frequency of Nur77 expression” value was “increased frequencies of Nur77 expression”. For the same sequence, in [11], the “peak bond lifetime under force, CD8-intact” value is reported as ~ 3.0 s; the “bond lifetime at ~10 pN, CD8-intact” value is “no significant difference in bond lifetime between 41M and 41C”.
On to KAVYNFATC [41C], for which the “%Nur77+” value in data set [2] (setting [15]) is “significantly higher frequencies of Nur77+ CD8+ T cells than those stimulated with 41CGI”. In data set [2], the “signal strength as measured by Nur77 upregulation” value is “significantly stronger signals than 41CGI stimulated cells” and the ligand potency is reported as 41M > 41C > 41CGI. The Kd in data set [3] (setting [16]) was 2.3 µM. Moreover, the “bond lifetime by SPR” value in data set [3] (ref [51]) is reported as ~ 0.5 s. In addition, the IRF4 expression result in [4] (polyclonal CD8 T cells, 1 uM, 41M versus 41C (Figures 6E-I)) was “only a slight difference between 41M and 41C”. The “mean population 2D affinity (AcKa)” value in data set [5] is recorded as 6.62E-04 μm^4. For the same sequence, the sensitivity to antigen entry in [6] (41M versus 41C, in our experiments) is recorded as “same sensitivity to antigen”. Also, in data set [6] (Discussion), the “functional responses read out by Nur77, IFNγ and IL-2” value is “larger responses”. Besides, in data set [12], the peptide dimer formation entry is “form peptide dimers”. In addition, in data set [7], the “normalized adhesion bonds, mean bond number (-ln(1-Pa(s))/mpMHC)” value was 1.01E-01 μm^2 and the “total bond number hierarchy” value is given as 41M> 41C> 41CGI. Also, in [8], the “peak bond lifetime under force, CD8-null” value is ~ 0.9 s; the “bond lifetime by BFP for the TCR alone” value fell in the range of 0.8 to 0.9 s; the “bond lifetime at ~10 pN, CD8-null” value is “longer bond lifetime than 41M and dramatically more so than 41CGI; also recorded: no significant difference in bond lifetime between 41M and 41C”. The “IRF4 MFI at highest peptide dose” value in data set [9] (1 uM peptide, P14 CD8+ T cells, 41C versus 41CGI) was “did not observe a difference between 41C and 41CGI”. Also, the “IRF4 MFI at low peptide doses” value in data set [9] is recorded as “difference in IRF4 MFI”. Besides, in data set [10], the “Nur77 MFI” value is “not significantly different”. Moreover, in data set [11], the “peak bond lifetime under force, CD8-intact” value is reported as ~ 1.9 s; the “bond lifetime at ~10 pN, CD8-intact” value was “no significant difference in bond lifetime between 41M and 41C”. Further, the “stability in the MHC” value in [13] is “decreased stability in the MHC”.
With KAVYNFATCGI [41CGI], in [14], the “efficiency at competing for pMHC” value is reported as “six times more efficient”. Besides, the ligand potency in data set [2] stood at 41M > 41C > 41CGI. For the same sequence, the Kd in data set [3] (setting [16]) was 3.5 µM. For the same sequence, in [5], the “mean population 2D affinity (AcKa)” value worked out at 1.55E-04 μm^4 and the “2D affinity, result in words” value was “lowest 2D affinity of the three, it still had a relatively high 2D affinity”. Besides, the cytokine production result in [6] is listed as “significantly diminished cytokine production”. For the same sequence, in data set [7], the “normalized adhesion bonds, mean bond number (-ln(1-Pa(s))/mpMHC)” value was found to be 2.93E-02 μm^2 and the “total bond number hierarchy” value amounted to 41M> 41C> 41CGI. The “peak bond lifetime under force, CD8-null” value in data set [8] was ~ 0.1 s. In data set [9], the “IRF4 MFI at highest peptide dose” value was “did not observe a difference between 41C and 41CGI”; the “IRF4 MFI at low peptide doses” value is recorded as “difference in IRF4 MFI”. The “Nur77 MFI” value in data set [10] is “not significantly different”. Moreover, the “peak bond lifetime under force, CD8-intact” value in data set [11] is ~ 1.5 s. Also, the “fold increase of peak bond lifetime by CD8 contribution” value in [11] (CD8-intact versus CD8-null pMHC) is 15 fold and ~ 15 fold.
